This note sets out measurements from US10709709B2, “Substituted carbonucleoside derivatives useful as anticancer agents” (Pfizer Inc., priority 2016, dated 2020).

Each structure is given as a SMILES string. Some results are limits rather than exact numbers.

The target in the assay is PRMT5/MEP50 protein complex (Homo sapiens (Human), UniProt O14744). Nature of the assay: PRMT5 biochemical assay (3H-SAM methylation of H4(1-21) peptide, filter plate scintillation). As to conditions: 10 nM PRMT5/MEP50 complex, 200 nM H4(1-21) peptide, 1 uM SAM, 25 minute incubation at room temperature. The method, then: Biochemical Assay Methods
Chain of PRMT5/MEP50 protein complex (O14744 other isoform, or with tags, fused parts or gaps): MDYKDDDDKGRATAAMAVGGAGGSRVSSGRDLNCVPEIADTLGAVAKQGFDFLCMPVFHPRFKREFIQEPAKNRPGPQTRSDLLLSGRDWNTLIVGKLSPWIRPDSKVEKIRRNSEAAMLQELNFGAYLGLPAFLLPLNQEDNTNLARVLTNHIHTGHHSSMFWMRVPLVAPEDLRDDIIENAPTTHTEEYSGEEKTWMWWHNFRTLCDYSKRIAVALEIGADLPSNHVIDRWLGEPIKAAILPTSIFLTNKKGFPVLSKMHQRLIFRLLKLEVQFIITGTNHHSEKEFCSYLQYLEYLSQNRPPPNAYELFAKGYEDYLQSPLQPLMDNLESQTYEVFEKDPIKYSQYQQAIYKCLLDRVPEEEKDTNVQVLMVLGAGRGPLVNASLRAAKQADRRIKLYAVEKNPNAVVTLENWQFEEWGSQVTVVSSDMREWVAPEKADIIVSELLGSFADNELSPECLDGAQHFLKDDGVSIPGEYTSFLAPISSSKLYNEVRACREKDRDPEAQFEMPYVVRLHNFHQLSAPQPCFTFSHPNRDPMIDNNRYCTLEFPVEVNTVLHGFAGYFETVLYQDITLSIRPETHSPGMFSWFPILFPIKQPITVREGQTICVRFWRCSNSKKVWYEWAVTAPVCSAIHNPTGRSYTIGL
Chain of PRMT5/MEP50 protein complex (Q9BQA1 whole entry partner): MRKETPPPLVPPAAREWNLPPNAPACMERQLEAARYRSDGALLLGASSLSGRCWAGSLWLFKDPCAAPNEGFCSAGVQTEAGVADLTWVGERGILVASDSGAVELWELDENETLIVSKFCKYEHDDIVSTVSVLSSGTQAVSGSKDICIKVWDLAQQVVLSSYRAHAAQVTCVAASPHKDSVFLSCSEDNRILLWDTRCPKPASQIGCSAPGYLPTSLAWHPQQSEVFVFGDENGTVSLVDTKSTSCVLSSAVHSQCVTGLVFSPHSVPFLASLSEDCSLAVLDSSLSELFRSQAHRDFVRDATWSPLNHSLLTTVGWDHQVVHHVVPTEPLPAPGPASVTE
Compounds were solubilized in DMSO and serially diluted, using 3-fold dilutions, into 100% DMSO at a concentration 50-fold greater than the desired assay concentration. Following dilution, 1 ul was added to an empty 96-well microtiter plate. PRMT5/MEP50 protein complex was combined with H4(1-21) peptide ([…]) in PRMT5 assay buffer (50 mM Tris pH 8.5, 50 mM NaCl, 5 mM MgCl2, 1 mM EDTA, 1 mM TCEP) and 44 ul was added to the microtiter plate containing compound. S-Adenosyl-L-methionine (SAM) was prepared by combining ^3H labelled SAM with unlabelled SAM in PRMT5 assay buffer such that the final SAM concentration was 10 uM and the specific activity was 0.2 uCi/ul. The reaction was initiated by adding 5 ul of SAM stock to the microtiter plate. The final reaction conditions were 10 nM PRMT5/MEP50 complex, 200 nM peptide and 1 uM SAM. Following a 25 minute incubation at room temperature, the reaction was stopped with the addition of 100 uL of 20% TCA. The 3H-peptide product was captured using a 96-well filter plate (MSIPN4B, Millipore) and washed 5 times with PBS buffer. Scintillation fluid (100 ul) was added to the dried filter plate and counted in a liquid scintillation counter. IC50 values were determined by fitting the data to the standard 4-parameter dose response equation using Pfizer proprietary software.
Results for the biochemical assay of examples are summarized in Table 1, shown as IC50 values in μM.
The compound `Cc1ncnc(N(C)[C@@H]2C[C@H]([C@@H](O)c3ccc(F)c(F)c3)[C@@H](O)[C@H]2O)n1` [Example 47, (1S,2R,3R,5R)-3-[(R)-(3,4-difluorophenyl)(hydroxy)methyl]-5-[methyl(4-methyl-1,3,5-triazin-2-yl)amino]cyclopentane-1,2-diol] came in with an IC50 of 29500 nM. Compound `Cc1nc(N)nc2c1ccn2[C@@H]1C[C@H]([C@@H](O)c2ccc(F)c(F)c2)[C@@H](O)[C@H]1O` [Example 49, (1R,2S,3R,5R)-3-(2-amino-4-methyl-7H-pyrrolo[2,3-d]pyrimidin-7-yl)-5-[(R)-(3,4-difluorophenyl)(hydroxy)methyl]cyclopentane-1,2-diol] returned a concentration for half-maximal inhibition (IC50) of 105 nM. Next, `Cc1ncnc2c1ccn2[C@@H]1C[C@H](C(F)(CN)c2ccc(F)cc2)[C@@H](O)[C@H]1O` (stereo partly drawn) [Example 50, (1S,2R,3S,5R)-3-[2-amino-1-fluoro-1-(4-fluorophenyl)ethyl]-5-(4-methyl-7H-pyrrolo[2,3-d]pyrimidin-7-yl)cyclopentane-1,2-diol]: 18900 nM; `Cc1ncnc2c1ccn2[C@@H]1C[C@H]([C@H](CN)c2ccc(F)cc2)[C@@H](O)[C@H]1O` [Example 51, (1S,2R,3R,5R)-3-[(1S)-2-amino-1-(4-fluorophenyl)ethyl]-5-(4-methyl-7H-pyrrolo[2,3-d]pyrimidin-7-yl)cyclopentane-1,2-diol]: 676 nM. In the case of `Cc1ncnc2c1ccn2[C@@H]1C[C@H]([C@@H](CN)c2ccc(F)cc2)[C@@H](O)[C@H]1O` [Example 52, (1S,2R,3R,5R)-3-[(1R)-2-amino-1-(4-fluorophenyl)ethyl]-5-(4-methyl-7H-pyrrolo[2,3-d]pyrimidin-7-yl)cyclopentane-1,2-diol], the IC50 is 906 nM. Next, `Cc1ncnc2c1ccn2[C@@H]1C[C@H]([C@@H](O)c2ccc(Cl)cc2CN)[C@@H](O)[C@H]1O` [Example 54, (1S,2R,3R,5R)-3-((R)-(2-(aminomethyl)-4-chlorophenyl)(hydroxy)methyl)-5-(4-methyl-7H-pyrrolo[2,3-d]pyrimidin-7-yl)cyclopentane-1,2-diol]: 126 nM; `Cc1ncnc2c1ccn2[C@@H]1C[C@H]([C@@H](O)c2cccc3c2CNCC3)[C@@H](O)[C@H]1O` [Example 57, (1S,2R,3R,5R)-3-((R)-hydroxy(1,2,3,4-tetrahydroisoquinolin-8-yl)methyl)-5-(4-methyl-7H-pyrrolo[2,3-d]pyrimidin-7-yl)cyclopentane-1,2-diol]: 48 nM. The compound `Cc1ncnc2c1ccn2[C@@H]1C[C@H](Cc2ccc(F)cc2)[C@@H](O)[C@H]1O` [Example 58, (1S,2R,3S,5R)-3-(4-fluorobenzyl)-5-(4-methyl-7H-pyrrolo[2,3-d]pyrimidin-7-yl)cyclopentane-1,2-diol] yielded a half-maximal inhibitory concentration (IC50) of 289 nM. In the case of `CO[C@H]1C[C@@H](n2ccc3c(C)ncnc32)[C@H](O)[C@@H]1O` [Example 60, (1S,2S,3S,5R)-3-methoxy-5-(4-methyl-7H-pyrrolo[2,3-d]pyrimidin-7-yl)cyclopentane-1,2-diol], the IC50 was > 200000 nM. Take `CO[C@@H]1C[C@H](n2ccc3c(C)ncnc32)[C@@H](O)[C@H]1O` [Example 61, (1R,2R,3R,5S)-3-methoxy-5-(4-methyl-7H-pyrrolo[2,3-d]pyrimidin-7-yl)cyclopentane-1,2-diol]: the concentration for half-maximal inhibition (IC50) came to 2120 nM. The figure for `Cc1ncnc2c1ccn2[C@@H]1C[C@H](Oc2ccccc2CN)[C@@H](O)[C@H]1O` [Example 62, (1S,2S,3S,5R)-3-(2-(aminomethyl)phenoxy)-5-(4-methyl-7H-pyrrolo[2,3-d]pyrimidin-7-yl)cyclopentane-1,2-diol] is 25 nM; for `Cc1ncnc2c1ccn2[C@H]1C[C@@H](Oc2ccccc2CN)[C@H](O)[C@@H]1O` [Example 63, (1R,2R,3R,5S)-3-(2-(aminomethyl)phenoxy)-5-(4-methyl-7H-pyrrolo[2,3-d]pyrimidin-7-yl)cyclopentane-1,2-diol] it is 1060 nM. The figure for `Cc1ncnc2c1ccn2[C@@H]1C[C@H](Oc2ccccc2C#N)[C@@H](O)[C@H]1O` [Example 64, 2-(((1S,2S,3S,4R)-2,3-dihydroxy-4-(4-methyl-7H-pyrrolo[2,3-d]pyrimidin-7-yl)cyclopentyl)oxy)benzonitrile] is > 200000 nM; for `Cc1ncnc2c1ccn2[C@H]1C[C@@H](Oc2ccccc2C#N)[C@H](O)[C@@H]1O` [Example 65, 2-(((1R,2R,3R,4S)-2,3-dihydroxy-4-(4-methyl-7H-pyrrolo[2,3-d]pyrimidin-7-yl)cyclopentyl)oxy)benzonitrile] it is > 200000 nM. Next, `Cc1ncnc2c1ccn2[C@H]1C[C@@H](Oc2ccc(F)cc2CN)[C@H](O)[C@@H]1O` [Example 67, (1R,2R,3R,5S)-3-(2-(aminomethyl)-4-fluorophenoxy)-5-(4-methyl-7H-pyrrolo[2,3-d]pyrimidin-7-yl)cyclopentane-1,2-diol]: > 200000 nM; `Cc1ncnc2c1ccn2[C@@H]1C[C@H](Oc2ccc(F)cc2C#N)[C@@H](O)[C@H]1O` [Example 68, 2-(((1S,2S,3S,4R)-2,3-dihydroxy-4-(4-methyl-7H-pyrrolo[2,3-d]pyrimidin-7-yl)cyclopentyl)oxy)-5-fluorobenzonitrile]: > 200000 nM; `Cc1ncnc2c1ccn2[C@H]1C[C@@H](Oc2ccc(F)cc2C#N)[C@H](O)[C@@H]1O` [Example 69, 2-(((1R,2R,3R,4S)-2,3-dihydroxy-4-(4-methyl-7H-pyrrolo[2,3-d]pyrimidin-7-yl)cyclopentyl)oxy)-5-fluorobenzonitrile]: > 200000 nM. The compound `Cc1ncnc2c1ccn2[C@@H]1C[C@H](Oc2ccc(F)cc2C(N)=O)[C@@H](O)[C@H]1O` [Example 70, 2-(((1S,2S,3S,4R)-2,3-dihydroxy-4-(4-methyl-7H-pyrrolo[2,3-d]pyrimidin-7-yl)cyclopentyl)oxy)-5-fluorobenzamide] registered an IC50 of 13600 nM. Next, `Cc1ncnc2c1ccn2[C@@H]1C[C@H](Oc2ccc(F)cc2CN(C)C)[C@@H](O)[C@H]1O` [Example 71, (1S,2S,3S,5R)-3-(2-((dimethylamino)methyl)-4-fluorophenoxy)-5-(4-methyl-7H-pyrrolo[2,3-d]pyrimidin-7-yl)cyclopentane-1,2-diol]: 69 nM; `CNCc1cc(F)ccc1O[C@H]1C[C@@H](n2ccc3c(C)ncnc32)[C@H](O)[C@@H]1O` [Example 72, (1S,2S,3S,5R)-3-(4-fluoro-2-((methylamino)methyl)phenoxy)-5-(4-methyl-7H-pyrrolo[2,3-d]pyrimidin-7-yl)cyclopentane-1,2-diol]: 22 nM. The figure for `Cc1ncnc2c1ccn2[C@@H]1C[C@H](Oc2ccc(F)cc2)[C@@H](O)[C@H]1O` [Example 73, (1S,2S,3S,5R)-3-(4-fluorophenoxy)-5-(4-methyl-7H-pyrrolo[2,3-d]pyrimidin-7-yl)cyclopentane-1,2-diol] is 6880 nM; for `Cc1ncnc2c1ccn2[C@@H]1C[C@H](Oc2c(F)cccc2F)[C@@H](O)[C@H]1O` [Example 74, (1S,2S,3S,5R)-3-(2,6-difluorophenoxy)-5-(4-methyl-7H-pyrrolo[2,3-d]pyrimidin-7-yl)cyclopentane-1,2-diol] it is 63300 nM; for `Cc1cc(F)ccc1O[C@H]1C[C@@H](n2ccc3c(C)ncnc32)[C@H](O)[C@@H]1O` [Example 75, (1S,2S,3S,5R)-3-(4-fluoro-2-methylphenoxy)-5-(4-methyl-7H-pyrrolo[2,3-d]pyrimidin-7-yl)cyclopentane-1,2-diol] it is 37800 nM. With `Cc1ncnc2c1ccn2[C@H]1C[C@H](Oc2cccc3c2C(=O)NCC3)[C@@H](O)[C@H]1O` [Example 76, 8-(((1S,2S,3S,4S)-2,3-dihydroxy-4-(4-methyl-7H-pyrrolo[2,3-d]pyrimidin-7-yl)cyclopentyl)oxy)-3,4-dihydroisoquinolin-1(2H)-one], the IC50 is 144000 nM. The compound `Cc1ncnc2c1ccn2C1C[C@H](Oc2cccc3c2CNC3)[C@@H](O)[C@H]1O` (stereo partly drawn) [Example 79, (1S,2S,3S,5R)-3-(2,3-dihydro-1H-isoindol-4-yloxy)-5-(4-methyl-7H-pyrrolo[2;3-d]pyrimidin-7-yl)cyclopentane-1,2-diol] showed a half-maximal inhibitory concentration (IC50) of 83 nM. The figure for `Cc1ncnc2c1ccn2[C@@H]1C[C@H](Oc2cccc3c2CCNC3)[C@@H](O)[C@H]1O` [Example 80, (1S,2S,3R,5S)-3-(4-methyl-7H-pyrrolo[2,3-d]pyrimidin-7-yl)-5-((1,2,3,4-tetrahydroisoquinolin-5-yl)oxy)cyclopentane-1,2-diol] is 130 nM. Next, `Cc1ncnc2c1ccn2[C@@H]1C[C@H](Oc2cccc3c2CCN(C)C3)[C@@H](O)[C@H]1O` [Example 81, (1S,2S,3R,5S)-3-(4-methyl-7H-pyrrolo[2,3-d]pyrimidin-7-yl)-5-[(2-methyl-1,2,3,4-tetrahydroisoquinolin-5-yl)oxy]cyclopentane-1,2-diol]: 1670 nM. `Cc1ncnc2c1ccn2[C@@H]1C[C@H](Oc2cccc3c2CN(C)C3)[C@@H](O)[C@H]1O` [Example 82, (1S,2S,3S,5R)-3-[(2-methyl-2,3-dihydro-1H-isoindol-4-yl)oxy]-5-(4-methyl-7H-pyrrolo[2,3-d]pyrimidin-7-yl)cyclopentane-1,2-diol] yielded a concentration for half-maximal inhibition (IC50) of 991 nM.
